In ChEMBL document CHEMBL4804284:

Assays:
Design in all cases: scale not given: the % may be the effect or the level left
[1] = tested on: Tyrosine-protein kinase ABL1 (Homo sapiens), P00519 [Q252H]; assay: Inhibition of DNA-tagged phosphorylated human ABL1 Q252H mutant assessed as percent of control at 50000 nM by qPCR analysis relative to control
[2] = molecular target: Rho-associated protein kinase 1 (Homo sapiens) (UniProt Q13464); assay: Inhibition of DNA-tagged human ROCK1 assessed as percent of control at 50000 nM by qPCR analysis relative to control
[3] = molecular target: Protein-tyrosine kinase 6 (Homo sapiens) (UniProt Q13882); assay: Inhibition of DNA-tagged human BRK assessed as percent of control at 50000 nM by qPCR analysis relative to control
[4] = molecular target: Atypical kinase COQ8B, mitochondrial (Homo sapiens) (UniProt Q96D53); assay: Inhibition of DNA-tagged human ADCK4 assessed as percent of control at 50000 nM by qPCR analysis relative to control
[5] = molecular target: Tyrosine-protein kinase Mer (Homo sapiens) (UniProt Q12866); assay: Inhibition of DNA-tagged human MERTK assessed as percent of control at 50000 nM by qPCR analysis relative to control
[6] = molecular target: Calcium/calmodulin-dependent protein kinase kinase 2 (Homo sapiens) (UniProt Q96RR4); assay: Inhibition of DNA-tagged human CAMKK2 assessed as percent of control at 50000 nM by qPCR analysis relative to control
[7] = molecular target: Interleukin-1 receptor-associated kinase 1 (Homo sapiens) (UniProt P51617); assay: Inhibition of DNA-tagged human IRAK1 assessed as percent of control at 50000 nM by qPCR analysis relative to control
Chain of Interleukin-1 receptor-associated kinase 1 (Homo sapiens) (P51617 whole entry, looked up): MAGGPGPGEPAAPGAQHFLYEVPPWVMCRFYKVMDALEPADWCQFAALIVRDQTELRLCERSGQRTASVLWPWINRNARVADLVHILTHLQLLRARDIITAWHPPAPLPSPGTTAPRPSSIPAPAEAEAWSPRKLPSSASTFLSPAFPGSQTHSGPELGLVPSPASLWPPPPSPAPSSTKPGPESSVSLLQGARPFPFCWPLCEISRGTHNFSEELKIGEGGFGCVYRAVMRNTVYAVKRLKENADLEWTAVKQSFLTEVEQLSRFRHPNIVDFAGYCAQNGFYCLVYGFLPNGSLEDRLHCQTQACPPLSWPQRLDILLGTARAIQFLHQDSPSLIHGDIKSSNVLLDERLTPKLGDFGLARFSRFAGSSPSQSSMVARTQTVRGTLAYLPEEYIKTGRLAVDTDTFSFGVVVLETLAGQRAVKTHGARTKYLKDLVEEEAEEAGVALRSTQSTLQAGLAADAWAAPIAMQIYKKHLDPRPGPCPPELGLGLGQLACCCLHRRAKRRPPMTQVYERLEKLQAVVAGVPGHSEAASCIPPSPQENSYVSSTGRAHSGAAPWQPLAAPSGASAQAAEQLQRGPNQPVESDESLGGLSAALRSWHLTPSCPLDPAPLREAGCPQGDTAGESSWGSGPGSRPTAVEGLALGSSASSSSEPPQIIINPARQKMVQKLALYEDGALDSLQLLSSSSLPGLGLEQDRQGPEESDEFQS

[8] = molecular target: Dual specificity mitogen-activated protein kinase kinase 1 (Homo sapiens) (UniProt Q02750); assay: Inhibition of DNA-tagged human MEK1 assessed as percent of control at 50000 nM by qPCR analysis relative to control
[9] = tested on: Tyrosine-protein kinase ABL1 (Homo sapiens), P00519 [UNDEFINED MUTATION]; assay: Inhibition of DNA-tagged non-phosphorylated human ABL1 […] mutant assessed as percent of control at 50000 nM by qPCR analysis relative to control
[10] = molecular target: Tyrosine-protein kinase Yes (Homo sapiens) (UniProt P07947); assay: Inhibition of DNA-tagged human YES assessed as percent of control at 50000 nM by qPCR analysis relative to control
[11] = molecular target: Tyrosine-protein kinase BTK (Homo sapiens) (UniProt Q06187); assay: Inhibition of DNA-tagged human BTK assessed as percent of control at 50000 nM by qPCR analysis relative to control
[12] = tested on: Receptor-type tyrosine-protein kinase FLT3 (Homo sapiens), P36888 [N841I]; assay: Inhibition of DNA-tagged human FLT3 N841I mutant assessed as percent of control at 50000 nM by qPCR analysis relative to control
[13] = molecular target: Tyrosine-protein kinase CSK (Homo sapiens) (UniProt P41240); assay: Inhibition of DNA-tagged human CSK assessed as percent of control at 50000 nM by qPCR analysis relative to control
[14] = molecular target: Cyclin-dependent kinase 7 (Homo sapiens) (UniProt P50613); assay: Inhibition of DNA-tagged human CDK7 assessed as percent of control at 50000 nM by qPCR analysis relative to control
[15] = molecular target: Cyclin-dependent kinase 3 (Homo sapiens) (UniProt Q00526); assay: Inhibition of DNA-tagged human CDK3 assessed as percent of control at 50000 nM by qPCR analysis relative to control
[16] = molecular target: Ephrin type-B receptor 2 (Homo sapiens) (UniProt P29323); assay: Inhibition of DNA-tagged human EPHB2 assessed as percent of control at 50000 nM by qPCR analysis relative to control
[17] = tested on: Mast/stem cell growth factor receptor Kit (Homo sapiens), P10721 [V559D,V654A]; assay: Inhibition of DNA-tagged human KIT V559D/V654A double mutant assessed as percent of control at 50000 nM by qPCR analysis relative to control
[18] = molecular target: Angiopoietin-1 receptor (Homo sapiens) (UniProt Q02763); assay: Inhibition of DNA-tagged human TIE2 assessed as percent of control at 50000 nM by qPCR analysis relative to control
[19] = molecular target: SRSF protein kinase 3 (Homo sapiens) (UniProt Q9UPE1); assay: Inhibition of DNA-tagged human SRPK3 assessed as percent of control at 50000 nM by qPCR analysis relative to control
[20] = molecular target: Aurora kinase C (Homo sapiens) (UniProt Q9UQB9); assay: Inhibition of DNA-tagged human AURKC assessed as percent of control at 50000 nM by qPCR analysis relative to control
[21] = molecular target: Tyrosine-protein kinase JAK2 (Homo sapiens) (UniProt O60674); assay: Inhibition of DNA-tagged human JAK2 JH1 catalytic domain assessed as percent of control at 50000 nM by qPCR analysis relative to control
Chain of Tyrosine-protein kinase JAK2 (Homo sapiens) (O60674 whole entry, the tested form may be a part): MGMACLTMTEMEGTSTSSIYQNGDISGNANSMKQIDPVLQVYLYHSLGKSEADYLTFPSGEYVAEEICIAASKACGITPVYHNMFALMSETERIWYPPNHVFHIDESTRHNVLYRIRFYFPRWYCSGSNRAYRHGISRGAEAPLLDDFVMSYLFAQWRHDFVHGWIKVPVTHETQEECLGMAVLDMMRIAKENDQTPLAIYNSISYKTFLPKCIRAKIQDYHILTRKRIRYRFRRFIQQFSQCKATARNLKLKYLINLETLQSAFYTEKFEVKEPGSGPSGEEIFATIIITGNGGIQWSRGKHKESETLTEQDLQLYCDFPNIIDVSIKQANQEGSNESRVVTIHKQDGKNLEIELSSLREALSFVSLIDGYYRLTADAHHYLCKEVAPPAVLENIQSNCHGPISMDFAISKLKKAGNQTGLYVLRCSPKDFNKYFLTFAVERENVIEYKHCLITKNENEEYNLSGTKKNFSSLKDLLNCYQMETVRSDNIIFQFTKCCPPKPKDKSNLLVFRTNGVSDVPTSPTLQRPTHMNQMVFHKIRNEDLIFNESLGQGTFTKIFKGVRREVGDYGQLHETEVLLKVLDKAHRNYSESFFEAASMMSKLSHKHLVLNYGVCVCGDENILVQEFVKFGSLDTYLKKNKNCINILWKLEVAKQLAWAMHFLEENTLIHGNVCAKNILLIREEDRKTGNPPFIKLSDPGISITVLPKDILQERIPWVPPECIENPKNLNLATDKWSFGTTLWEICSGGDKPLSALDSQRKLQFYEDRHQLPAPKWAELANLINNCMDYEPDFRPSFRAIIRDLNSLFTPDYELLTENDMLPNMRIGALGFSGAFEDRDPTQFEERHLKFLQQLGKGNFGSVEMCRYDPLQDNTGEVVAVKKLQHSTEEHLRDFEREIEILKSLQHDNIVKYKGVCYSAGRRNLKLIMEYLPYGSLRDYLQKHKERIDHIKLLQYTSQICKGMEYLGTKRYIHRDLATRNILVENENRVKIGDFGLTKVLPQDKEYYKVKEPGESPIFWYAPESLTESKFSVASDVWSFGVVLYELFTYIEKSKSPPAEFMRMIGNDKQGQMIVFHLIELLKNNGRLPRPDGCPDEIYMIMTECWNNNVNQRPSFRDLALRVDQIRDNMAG

[22] = molecular target: Serine/threonine-protein kinase TBK1 (Homo sapiens) (UniProt Q9UHD2); assay: Inhibition of DNA-tagged human TBK1 assessed as percent of control at 50000 nM by qPCR analysis relative to control
[23] = molecular target: Serine/threonine-protein kinase SIK3 (Homo sapiens) (UniProt Q9Y2K2); assay: Inhibition of DNA-tagged human QSK assessed as percent of control at 50000 nM by qPCR analysis relative to control
[24] = molecular target: Proto-oncogene tyrosine-protein kinase Src (Homo sapiens) (UniProt P12931); assay: Inhibition of DNA-tagged human SRC assessed as percent of control at 50000 nM by qPCR analysis relative to control
Chain of Proto-oncogene tyrosine-protein kinase Src (Homo sapiens) (P12931 2-536 limits assumed): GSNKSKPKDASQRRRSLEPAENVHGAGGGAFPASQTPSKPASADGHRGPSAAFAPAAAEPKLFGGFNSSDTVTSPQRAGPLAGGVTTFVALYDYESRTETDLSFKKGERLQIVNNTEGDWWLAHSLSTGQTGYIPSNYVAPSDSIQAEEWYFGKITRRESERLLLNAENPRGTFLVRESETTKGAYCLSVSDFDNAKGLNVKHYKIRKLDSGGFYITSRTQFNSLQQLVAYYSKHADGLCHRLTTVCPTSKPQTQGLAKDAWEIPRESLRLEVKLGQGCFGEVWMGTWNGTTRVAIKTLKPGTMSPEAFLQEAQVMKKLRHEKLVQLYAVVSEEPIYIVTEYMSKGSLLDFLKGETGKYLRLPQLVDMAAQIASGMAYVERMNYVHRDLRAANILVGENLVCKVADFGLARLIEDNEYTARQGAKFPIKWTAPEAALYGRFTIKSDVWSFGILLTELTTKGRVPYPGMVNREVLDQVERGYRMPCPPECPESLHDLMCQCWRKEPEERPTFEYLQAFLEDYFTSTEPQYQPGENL

[25] = molecular target: Tyrosine-protein kinase Lck (Homo sapiens) (UniProt P06239); assay: Inhibition of DNA-tagged human LCK assessed as percent of control at 50000 nM by qPCR analysis relative to control
Chain of Tyrosine-protein kinase Lck (Homo sapiens) (P06239 2-509 limits assumed): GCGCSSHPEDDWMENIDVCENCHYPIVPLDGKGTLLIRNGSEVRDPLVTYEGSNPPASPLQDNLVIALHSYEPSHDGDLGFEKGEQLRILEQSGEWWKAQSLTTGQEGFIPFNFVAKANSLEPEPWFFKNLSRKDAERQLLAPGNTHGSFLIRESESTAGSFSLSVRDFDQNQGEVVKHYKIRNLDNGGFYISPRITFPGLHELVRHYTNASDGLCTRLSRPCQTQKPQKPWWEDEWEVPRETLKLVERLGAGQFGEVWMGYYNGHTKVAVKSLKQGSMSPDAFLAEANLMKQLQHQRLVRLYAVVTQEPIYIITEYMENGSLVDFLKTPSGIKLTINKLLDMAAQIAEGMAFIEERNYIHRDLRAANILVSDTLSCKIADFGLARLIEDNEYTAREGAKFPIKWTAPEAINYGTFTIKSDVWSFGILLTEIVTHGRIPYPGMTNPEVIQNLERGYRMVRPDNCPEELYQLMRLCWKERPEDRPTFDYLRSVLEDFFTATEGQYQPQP

[26] = molecular target: Membrane-associated tyrosine- and threonine-specific cdc2-inhibitory kinase (Homo sapiens) (UniProt Q99640); assay: Inhibition of DNA-tagged human PKMYT1 assessed as percent of control at 50000 nM by qPCR analysis relative to control
[27] = molecular target: Casein kinase I isoform gamma-2 (Homo sapiens) (UniProt P78368); assay: Inhibition of DNA-tagged human CSNK1G2 assessed as percent of control at 50000 nM by qPCR analysis relative to control
[28] = molecular target: Protein kinase C theta type (Homo sapiens) (UniProt Q04759); assay: Inhibition of DNA-tagged human PRKCQ assessed as percent of control at 50000 nM by qPCR analysis relative to control
Chain of Protein kinase C theta type (Homo sapiens) (Q04759 whole entry, looked up, the tested form may be a part): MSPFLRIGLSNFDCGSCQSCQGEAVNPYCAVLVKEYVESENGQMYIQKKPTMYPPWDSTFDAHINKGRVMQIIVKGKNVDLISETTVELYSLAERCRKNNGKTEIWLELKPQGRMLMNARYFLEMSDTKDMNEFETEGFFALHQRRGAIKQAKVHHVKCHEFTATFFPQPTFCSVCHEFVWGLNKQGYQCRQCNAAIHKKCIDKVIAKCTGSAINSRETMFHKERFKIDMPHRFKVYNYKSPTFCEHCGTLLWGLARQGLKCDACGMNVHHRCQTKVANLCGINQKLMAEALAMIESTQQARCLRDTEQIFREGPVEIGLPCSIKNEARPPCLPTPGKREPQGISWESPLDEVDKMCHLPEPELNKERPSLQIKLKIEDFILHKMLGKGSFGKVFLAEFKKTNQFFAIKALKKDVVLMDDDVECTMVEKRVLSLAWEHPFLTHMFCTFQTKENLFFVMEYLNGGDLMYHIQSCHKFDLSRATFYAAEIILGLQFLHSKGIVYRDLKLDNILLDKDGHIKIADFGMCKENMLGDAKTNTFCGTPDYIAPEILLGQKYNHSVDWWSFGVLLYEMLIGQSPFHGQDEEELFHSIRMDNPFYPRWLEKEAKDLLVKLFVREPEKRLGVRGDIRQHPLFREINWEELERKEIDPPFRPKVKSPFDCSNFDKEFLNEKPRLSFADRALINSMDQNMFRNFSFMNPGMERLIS

[29] = molecular target: Non-receptor tyrosine-protein kinase TYK2 (Homo sapiens) (UniProt P29597); assay: Inhibition of DNA-tagged human TYK2 JH2 pseudokinase domain assessed as percent of control at 50000 nM by qPCR analysis relative to control
Chain of Non-receptor tyrosine-protein kinase TYK2 (Homo sapiens) (P29597 whole entry, the tested form may be a part): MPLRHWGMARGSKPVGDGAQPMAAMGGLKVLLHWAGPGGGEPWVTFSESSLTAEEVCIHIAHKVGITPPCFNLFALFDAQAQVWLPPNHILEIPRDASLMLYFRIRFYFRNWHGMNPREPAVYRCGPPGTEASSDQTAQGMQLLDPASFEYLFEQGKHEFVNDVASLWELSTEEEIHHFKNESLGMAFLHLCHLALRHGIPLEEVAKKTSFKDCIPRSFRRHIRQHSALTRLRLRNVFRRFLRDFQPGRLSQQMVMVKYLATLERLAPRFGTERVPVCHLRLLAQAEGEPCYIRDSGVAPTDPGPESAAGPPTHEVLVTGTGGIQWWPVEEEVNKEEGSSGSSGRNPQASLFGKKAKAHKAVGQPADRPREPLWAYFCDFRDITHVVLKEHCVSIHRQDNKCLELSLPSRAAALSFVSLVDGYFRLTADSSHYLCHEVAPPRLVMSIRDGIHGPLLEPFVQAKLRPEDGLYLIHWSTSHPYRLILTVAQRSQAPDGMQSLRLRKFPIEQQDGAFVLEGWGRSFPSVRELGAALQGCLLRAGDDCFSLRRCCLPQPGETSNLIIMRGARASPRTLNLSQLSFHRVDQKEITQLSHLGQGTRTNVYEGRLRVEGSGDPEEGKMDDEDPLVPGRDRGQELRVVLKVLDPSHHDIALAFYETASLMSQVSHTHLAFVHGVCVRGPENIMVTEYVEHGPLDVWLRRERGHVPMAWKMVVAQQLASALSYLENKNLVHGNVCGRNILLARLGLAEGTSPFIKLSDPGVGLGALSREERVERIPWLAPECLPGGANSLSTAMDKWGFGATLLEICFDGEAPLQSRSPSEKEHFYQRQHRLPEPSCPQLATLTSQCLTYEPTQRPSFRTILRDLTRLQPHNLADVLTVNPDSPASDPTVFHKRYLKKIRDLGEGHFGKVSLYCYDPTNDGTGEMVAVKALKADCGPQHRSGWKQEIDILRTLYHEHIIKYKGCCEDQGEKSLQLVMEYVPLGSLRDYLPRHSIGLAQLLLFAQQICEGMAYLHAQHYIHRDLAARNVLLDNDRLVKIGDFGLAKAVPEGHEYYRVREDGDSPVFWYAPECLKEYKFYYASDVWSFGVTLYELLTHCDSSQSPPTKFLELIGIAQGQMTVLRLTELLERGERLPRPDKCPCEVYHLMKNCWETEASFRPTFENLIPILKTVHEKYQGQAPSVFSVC

## CN1C(=O)/C(=C2/C(=O)Nc3ccccc32)c2ccccc21
[1]
  Activity: 100%
[2]
  Activity: 87%
[3]
  Activity: 100%
[4]
  Activity: 78%
[5]
  Activity: 100%
[6]
  Activity: 100%
[7]
  Activity: 64%
[8]
  Activity: 81%
[9]
  Activity: 100%
[10]
  Activity: 86%
[11]
  Activity: 82%
[12]
  Activity: 100%
[13]
  Activity: 100%
[14]
  Activity: 100%
[15]
  Activity: 78%
[16]
  Activity: 100%
[17]
  Activity: 100%
[18]
  Activity: 100%
[19]
  Activity: 100%
[20]
  Activity: 94%
[21]
  Activity: 73%
[22]
  Activity: 50%
[23]
  Activity: 100%
[24]
  Activity: 100%
[25]
  Activity: 96%
[26]
  Activity: 100%
[27]
  Activity: 93%
[28]
  Activity: 99%
[29]
  Activity: 88%
